Reference: patent publication US10562842B2, “Use of polyaminoisoprenyl derivatives in antibiotic or antiseptic treatment” (UNIVERSITE D'AIX-MARSEILLE, priority 2011, dated 2020)
≈ marks a conversion by molar mass, not a printed value.

Columns and labels:
[1] = test system: CHO cells; assay: Toxicity on CHO cultured cells; assay type: cell-based; conditions: Cricetulus griseus; killing of 50% of the CHO cells after 24 hours of incubation
Description: The toxicity of each compound was determined on CHO cultured cells. Incubation of CHO cells was performed with serial dilution of compounds. The compounds are either solubilized in DMSO or in PBS. The IC50 corresponds to the concentration of compounds leading to a killing of 50% of the CHO cells after 24 hours of incubation.

[2] = test system: AG100; assay: MIC of antibiotics ± test compound (MIC ratio), micro-broth dilution; assay type: cell-based, Escherichia coli; conditions: compound at MIC/4; Example 4
Description: (§1) Susceptibilities to antibiotics and compounds were determined in microplates by broth dilution method, as previously described. Minimal Inhibitory Concentrations (MICs) were determined with an inoculum of 10^6 CFU in 200 μL of MH broth containing two-fold serial dilutions of each drug. […] All MIC determinations were repeated at least three times in independent experiments.
(§2) The MICs of chloramphenicol±test compounds (MIC/4) were determined by the micro-broth dilution method (9). All MIC determinations were repeated at least three times in independent experiments. The MIC ratio corresponds to the ratio of the MIC of an antibiotic alone to the MIC of the same antibiotic in the presence of the tested compound (at MIC/4).
(§3) For reminder, the MIC ratio corresponds to the ratio of the MIC of the assessed antibiotic alone to the MIC of the same antibiotic in the presence of the tested compound (at MIC/4).

[3] = test system: AB1; assay: as above; assay type: cell-based, Acinetobacter baumannii; conditions: compound at MIC/4
Description: as §1, §2, §3

[4] = test system: ATCC 19606; assay: as above; assay type: cell-based, Acinetobacter baumannii; conditions: compound at MIC/4
Description: as §1, §2, §3

[5] = test system: Ea289; assay: MIC by broth dilution (intrinsic MIC); assay type: cell-based, Enterobacter aerogenes; conditions: Klebsiella aerogenes; Enterobacter Ea289
Description: as §1

[6] = test system: Ea294; assay: MIC by broth dilution (intrinsic MIC); assay type: cell-based, Enterobacter aerogenes; conditions: Klebsiella aerogenes, read-out: intrinsic MIC, Ea294
Description: as §1

[7] = test system: BN10055; assay: MIC by broth dilution (intrinsic MIC); assay type: cell-based, Salmonella enterica; conditions: Salmonella enterica; Salmonella BN10055
Description: as §1

[8] = test system: strain IV2571418 - Escherichia coli pig (resistant); assay: MIC of antibiotics in the presence and absence of test compound, veterinary strains; assay type: cell-based; parameters: MIC for strain IV2571418, Doxycycline in the presence of test compound: unit not given beside the values; conditions: compound at the Concentration (μM) (4-50)
Description: For each strain and each antibiotic, the MICs were determined in the presence and in the absence of one test compound.

[9] = test system: CHO-K1 cells; assay type: cell-based; conditions: for proliferation index, all the tested concentrations: Chinese hamster, 3 h
Description: Genotoxicity of compounds 11 and 14 was assessed by micronucleus test. The micronucleus test was performed on CHO-K1 cells with and without metabolic activation. Metabolic activation is obtained by adding in the medium S9 mix. S9 mix contains NADP, G6P and S9 fraction which is a crude preparation of enzymes obtained from the homogenized liver of rats. Briefly, CHO-K1 cells were cultured in Mc Coy's medium 5A and then transferred in the wells of Lab-Tek chamber slides at a concentration of 100 000 cells/ml. The cells were incubated during 24 h at 37° C. at CO2 (5%). The culture medium was replaced by Mc Coy's 5A medium comprising 10% per volume of S9 mix. The test compounds were added at increased concentrations. After being incubated during three hours at 37° C., the cells were rinsed with phosphate buffer (PBS) and then cultured in Mac Coy's 5A medium containing 3 μg/ml cytochalasine B. After an incubation of 21 hours at 37° C., the cells were rinsed, fixed with methanol and coloured with Giemsa 10% during 20 minutes. For each set of assays, the positive control was 0.05 μg/ml of mitomycine C or 5 μg/ml of benzo-a-pyrene. The negative control was culture medium containing 5% of PBS. The stained cells were then analysed by microscopy for the presence of micronuclei. The proliferation index was determined as follows: IP=(2×BIN+MON)/500. MON: number of mononucleated cells and BIN: number of binucleated cells.

[10] = test system: Enterobacter, Salmonella and Escherichia strains; assay: MIC ratio, several strains; assay type: cell-based
Text: as §3

[11] = test system: Pseudomonas and Actinebacter strains; assay: MIC ratio, several strains; assay type: cell-based
Text: as §3

[12] = test system: Enterobacter aerogenes MDR Ea289; assay: MIC of antibiotics ± test compound (MIC ratio), micro-broth dilution; assay type: cell-based; conditions: compound at MIC/4, Set 2; for MIC ratio (*) on Ea289 Dox: doxycycline; for MIC ratio (*) on Ea289 Nal: nalidixic acid

Compound | MIC ratio Chloramphenicol E. Coli AG100 [2] | MIC ratio Doxycycline E. Coli AG100 [2] | MIC ratio Oxacillin E. Coli AG100 [2] | MIC ratio Cefepime Acinetobacter baumannii AB1 [3] | MIC ratio Chloramphénicol Acinetobacter baumannii AB1 [3] | MIC ratio Doxycycline Acinetobacter baumannii AB1 [3] | MIC ratio Tetracycline Acinetobacter baumannii AB1 [3] | MIC ratio Cefepime Acinetobacter baumannii ATCC19606 [4] | MIC ratio Chloramphénicol Acinetobacter baumannii ATCC19606 [4] | MIC ratio Doxycycline Acinetobacter baumannii ATCC19606 [4] | MIC ratio Tetracycline Acinetobacter baumannii ATCC19606 [4] | MIC [5] [µM] | MIC [6] [µM] | MIC [7] [µM] | MIC for strain IV2571418, Doxycycline in the presence of test compound [8] | MIC for strain IV2571418, Tylosine in the presence of test compound [8] | genotoxicity in vitro (micronucleus test) [9] | proliferation index, all the tested concentrations [9] | MIC ratio (*) on Ea289 Dox [12] | MIC ratio (*) on Ea289 Nal [12] | further results
CC(C)=CCCC(C)=CCNCCCN(CCCN)CCCN (racemic) [Compound 11, {3-[Bis-(3-amino-propyl)-amino]-propyl}-(3,7-dimethyl-octa-2,6-dienyl)-amine] | 16 | >32 | 16 | 1 | 16 | 2 | 2 | 4-8 | 8 | 1 | 8 | 31 (≈ 10.1 µg/mL) | 15 (≈ 4.87 µg/mL) | 31 (≈ 10.1 µg/mL) | 2 | 4 | not genotoxic in vitro | higher than 50% | 32 | 8 | IC50 [1]: 0.282 mM; sensitivity for chloramphenicol, nalidixic acid, doxycycline and oxacillin ([10]; Enterobacter Salmonella and Escherichia strains): increased the sensitivity; sensitivity to tetracycline, Enterobacter, Salmonella and E. coli strains ([10]; tetracycline, data not shown): such an increase was not observed; sensitivity of strains to chloramphenicol ([11]; Pseudomonas and Actinebacter strains): greatly increased the sensitivity; sensitivity to tetracycline, Pseudomonas and Actinebacter strains ([11]; tetracycline): increased the sensitivity
CC(C)=CCC/C(C)=C/CC/C(C)=C/CNCCCN(C)CCCN [Compound 14, {3-[(3-Amino-propyl)-methyl-amino]-propyl}-((2E,6E)-3,7,11-trimethyl-dodeca-2,6,10-trienyl)-amine] | 16 | >32 | 16 | 1 | 16 | 2 | 4 | 4-8 | 8 | 1 | 4 | 31 (≈ 10.8 µg/mL) | 15 (≈ 5.24 µg/mL) | 31 (≈ 10.8 µg/mL) | 2 | 4 | not genotoxic in vitro | higher than 50% | 64 | 32 | –
